Experimental data: patent publication US7153885B2, “Stolonoxides” (Universidad de Cadiz, priority 2000, dated 2006)
Values after ≈ are worked out from the molar mass of the structure shown.

Legend:
Type in all cases: cell-based
[1] = system: P-388 (suspension culture of a lymphoid neoplasm from DBA/2 mouse); experiment: Antitumour screening, P-388 cell growth (adapted Bergeron method); settings: approximate IC50, three days of incubation, growth vs control wells
Description: (§1) Cell Cultures. Cells were maintained in logarithmic phase of growth in Eagle's Minimum Essential Medium, with Earle's Balanced Salts, with 2.0 mM L-glutamine, with non-essential amino acids, without sodium bicarbonate (EMEM/neaa); supplemented with 10% Fetal Calf Serum (FCS), 10^−2 M sodium bicarbonate and 0.1 g/l penicillin-G+streptomycin sulfate.
(§2) A simple screening procedure has been carried out to determine and compare the antitumour activity of these compounds, using an adapted form of the method described by Bergeron et al (1984). The tumour cell line employed were P-388 (suspension culture of a lymphoid neoplasm from DBA/2 mouse), A-549 (monolayer culture of a human lung carcinoma), HT-29 (monolayer culture of a human colon carcinoma) and MEL-28 (monolayer culture of a human melanoma).
(§3) P-388 cell were seeded into 16 mm wells at 1×10^4 cells per well in 1 ml aliquots of MEM 5FCS containing the indicated concentration of drug. A separate set of cultures without drug was seeded as control growth to ensure that cells remained in exponential phase of growth. All determinations were carried out in duplicate. After three days of incubation at 37° C., 10% CO2 in a 98% humid atmosphere, an approximate IC50 was determined by comparing the growth in wells with drug to the growth in wells contol.

[2] = system: A-549 (monolayer culture of a human lung carcinoma); experiment: Antitumour screening, A-549 cell growth (crystal violet); settings: approximate IC50, three days of incubation
Description: as §1, §2
as §3, with “A-549, HT-29 and MEL-28” for “P-388 cell”, “2×10^4” for “1×10^4”, “10FCS” for “5FCS”, “the wells were stained with 0.1% Crystal Violet. An” for “an”, “control.” for “contol.”

[3] = system: HT-29 (monolayer culture of a human colon carcinoma); experiment: Antitumour screening, HT-29 cell growth (crystal violet); settings: approximate IC50, three days of incubation
Description: as §1, §2
as §3, with “A-549, HT-29 and MEL-28” for “P-388 cell”, “2×10^4” for “1×10^4”, “10FCS” for “5FCS”, “the wells were stained with 0.1% Crystal Violet. An” for “an”, “control.” for “contol.”

[4] = system: MEL-28 (monolayer culture of a human melanoma); experiment: Antitumour screening, MEL-28 cell growth (crystal violet); settings: approximate IC50, three days of incubation
Description: as §1, §2
as §3, with “A-549, HT-29 and MEL-28” for “P-388 cell”, “2×10^4” for “1×10^4”, “10FCS” for “5FCS”, “the wells were stained with 0.1% Crystal Violet. An” for “an”, “control.” for “contol.”

Row | IC50 P 388 [1] | IC50 A 549 [2] | IC50 HT 29 [3] | IC50 MEL 28 [4] | IC50 ([1]; Mus musculus, P388, 72 h) | IC50 ([2]; Homo sapiens, A549, 72 h) | IC50 ([3]; Homo sapiens, HT-29, 72 h) | Compound
1 | 0.5 µg/mL | 0.1 µg/mL | 0.1 µg/mL | 0.5 µg/mL |  |  |  | Stolonoxide B methyl ester [Methyl ester (2b)]
2 |  |  |  |  | 0.1 µg/mL (≈ 0.238 µM) | 0.1 µg/mL (≈ 0.238 µM) | 0.1 µg/mL (≈ 0.238 µM) | C=CCC/C=C\C=C/CCCCCC[C@H]1CC[C@@H]([C@H]2CC[C@@H](CC(=O)OC)OO2)O1 [Methyl ester (1b), Stolonoxide A methyl ester]
